Measured values: publication PMC11736144, “A sleepy cannabis constituent: cannabinol and its active metabolite influence sleep architecture in rats” (Neuropsychopharmacology, 2024)
Read-outs that look alike come from different tables or passages of the source.

Experiments:
[1] = molecular target: T1, human CB1 receptors (Homo sapiens, UniProt P21554); set-up: expressed in transfected cells; method as in PMID 7565624, PMID 9690851; details: some studies; cited from earlier work
[2] = rats, oral vs IP of the current study; cited from earlier work
[3] = tested on: male Long-Evans rats; experiment: Acute polysomnography (wireless EEG/EMG telemetry) in rats
[4] = tested on: rats; set-up: method as in PMID 168604; details: cited from earlier work
[5] = tested on: rats; details: cited from earlier work
[6] = cited from earlier work
[7] = tested on: non-clinical sample of poor sleepers; set-up: method as in PMID 37796540; details: 20 mg CBN alone, self-reported measures, vs placebo; cited from earlier work
[8] = Pharmacokinetic analysis of CBN and metabolites in rat plasma and brain (LC-MS/MS); format: in vivo
Experimental: Rats received 10 mg/kg CBN IP at approximately ZT13. Rats were then anesthetized with isoflurane at selected ZT points (13, 13.5, 14, 15, 17, 19, and 21) and blood was collected by terminal cardiac puncture. Brains were harvested, snap frozen on dry ice and plasma was isolated via centrifugation at 9000 × g for 10 min at 4 °C. All tissues were stored at −80 °C until analysis. CBN and metabolite concentrations in plasma and brain samples were assayed by liquid chromatography-tandem mass spectrometry (LC–MS/MS) using a using a Shimadzu Nexera LC-30AD UHPLC system coupled to a Shimadzu SPD-20AV photodiode array detector and a Shimadzu LC–MS-8040 triple-quadrupole mass spectrometer, equipped with an electrospray ionization (ESI) source (Shimadzu Corp.; Kyoto, Japan) as described previously.
LC-MS/MS. Plasma samples (50 µL) were spiked with internal standard (12.5 µg/mL d3-THC, 5 µL) and protein precipitation was achieved by vortex-mixing with a 3x volume of ice-cold acetonitrile. The organic layer was isolated by centrifugation (6000 g for 10 min, 4 °C) and evaporated to dryness using N2 gas. Samples were reconstituted in acetonitrile (90 µL) and 0.1% ammonium formate in water (300 µL) for supported-liquid extraction (SLE) using dichloromethane and methyl tert-butyl ether Biotage Isolute SLE+ columns (Uppsala, Sweden) as previously described. Brain samples were prepared as described for plasma samples with minor modifications. Briefly, each half brain was homogenised in methanol: water (2:1, 10x, w/v) and spiked with d3-THC as an internal standard. Homogenates were centrifuged (20,000 g for 30 min, 4 °C). Supernatants were then extracted and prepared as described above.
Quantification of CBN, 11-OH-CBN and 11-COOH-CBN in plasma and brain samples was performed by comparing experimental samples to eight-point standard curves prepared with known amounts of cannabinoid. Plasma and brain concentrations at each time point were averaged and pharmacokinetic parameters were calculated by noncompartmental analysis. Elimination rate constants were determined by linear regression of the terminal component of the concentration-time curve using GraphPad Prism 8.2 (La Jolla, USA). The log-linear trapezoidal method was used to calculate the area under concentration-time curve using equations described previously.

[9] = tested on: male Long-Evans rats; experiment: Repeated CBN dosing (15 days) polysomnography in rats; format: in vivo, rat; details: CBN 10 mg/kg IP daily for 15 days
Experimental: In the repeated dosing experiment, eight rats were randomly assigned to vehicle condition and eight to the CBN 10 mg/kg condition. Rats were administered the same treatment at ZT13 each day for 15 days, however, telemetry recordings were taken on days 1, 8, and 15 of respective treatments, and the response was compared between subjects.

[10] = molecular target: T2, human CB2 receptors (Homo sapiens, UniProt P34972); experiment: Membrane potential (GIRK) assay in AtT20 cells, human CB2; format: cell-based; details: at 10 µM; normalized to 1 µM CP 55,940
T2 construct: expressed in transfected cells; host or cells: mouse AtT20 FlpIn cells
T2 sequence (P34972 whole entry): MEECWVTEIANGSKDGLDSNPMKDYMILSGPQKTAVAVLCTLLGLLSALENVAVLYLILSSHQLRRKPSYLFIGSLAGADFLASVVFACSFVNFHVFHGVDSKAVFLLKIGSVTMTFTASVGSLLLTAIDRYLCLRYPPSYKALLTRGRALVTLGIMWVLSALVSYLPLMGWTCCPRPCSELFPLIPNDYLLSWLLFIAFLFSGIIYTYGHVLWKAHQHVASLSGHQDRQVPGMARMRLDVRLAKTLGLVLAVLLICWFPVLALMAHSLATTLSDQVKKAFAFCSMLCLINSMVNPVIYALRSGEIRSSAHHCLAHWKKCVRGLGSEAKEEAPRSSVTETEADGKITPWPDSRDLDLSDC

[11] = molecular target: T1, human CB1 receptors; experiment: cell-based; format: cell-based; set-up: expressed in transfected cells; host or cells: mouse AtT20 FlpIn cells
[12] = acute IP at ZT13 vs vehicle, CBN 10, 30, 100 mg/kg, 11-OH-CBN 1, 3, 10 mg/kg
[13] = acute IP at ZT13 vs vehicle, CBN 10, 30, 100 mg/kg, zolpidem 10 mg/kg, 11-OH-CBN 1, 3, 10 mg/kg
[14] = rats, 10 and 30 mg/kg CBN IP, CBN 99.2% pure with 0.8% Δ8-THC, ref Järbe et al (1987)
[15] = days 1, 8, 15, not subject to tolerance

T1 sequence (P21554 whole entry): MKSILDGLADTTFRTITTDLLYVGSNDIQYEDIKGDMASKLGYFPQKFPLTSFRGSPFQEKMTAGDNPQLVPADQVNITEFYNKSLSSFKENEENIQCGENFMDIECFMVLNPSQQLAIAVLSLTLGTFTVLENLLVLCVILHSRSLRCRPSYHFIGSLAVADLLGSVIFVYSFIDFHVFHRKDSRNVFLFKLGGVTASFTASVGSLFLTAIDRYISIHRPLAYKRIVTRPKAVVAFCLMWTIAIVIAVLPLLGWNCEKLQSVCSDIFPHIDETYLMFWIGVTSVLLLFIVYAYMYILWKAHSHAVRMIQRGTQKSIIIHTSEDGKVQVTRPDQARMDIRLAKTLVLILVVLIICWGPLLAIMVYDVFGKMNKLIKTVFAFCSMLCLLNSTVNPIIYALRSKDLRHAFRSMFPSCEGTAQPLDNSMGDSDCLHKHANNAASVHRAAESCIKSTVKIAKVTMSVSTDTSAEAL

SMILES: CCCCCc1cc(O)c2c(c1)OC(C)(C)c1ccc(C)cc1-2 [CBN, cannabinol]
- activity at human CB1 receptors [1]: inactive
- plasma exposures (AUC), oral lower than intraperitoneal at the same dose [2]: ~5 fold
- % NREM sleep compared to vehicle ([3]; CBN 10 mg/kg and 100 mg/kg, various time points from ZT16–20): significantly increased
- cumulative total sleep time ([3]; CBN 10 mg/kg dose only, from ZT17): significantly increased
- NREM delta power at specific time points ([3]; CBN 30 mg/kg and 100 mg/kg at ZT17 and 18, zolpidem 10 mg/kg at ZT13 and 14): increase
- NREM delta power ([3]; EEG power spectra, overall effect, acute IP, CBN 10, 30, 100 mg/kg, zolpidem 10 mg/kg, 11-OH-CBN 1, 3, 10 mg/kg): Neither CBN nor zolpidem had robust effects
- REM theta power ([3]; EEG power spectra, acute IP, CBN 10, 30, 100 mg/kg, zolpidem 10 mg/kg, 11-OH-CBN 1, 3, 10 mg/kg): increased
- delayed onset of action on % NREM sleep, time post-dosing ([3]; acute IP at ZT13): 3 to 4 h
- total sleep time ([3]; acute IP at ZT13 (dark phase) vs vehicle, CBN 10, 30, 100 mg/kg, zolpidem 10 mg/kg, 11-OH-CBN 1, 3, 10 mg/kg, n = 8): increased
- cumulative NREM time [3, 12]: biphasic effect
- cumulative REM time [3, 12]: similarly influenced
- % NREM sleep [3, 13]: increased
- % REM sleep [3, 13]: initially suppressed % REM, before it increased % REM at ZT17-18
- % active wake [3, 13]: decreased
- % quiet wake [3, 13]: affected
- NREM sleep onset latency [3, 13]: did not affect
- REM bout duration [3, 13]: initially decreased REM bout duration and then increased duration of REM bouts
- REM bout number [3, 13]: biphasically influenced
- REM sleep onset latency [3, 13]: increased
- cumulative total sleep time [3, 13]: biphasic effects
- mean duration of NREM bouts per hour [3, 13]: increased
- number of NREM bouts per hour [3, 13]: decreased
- total wake time [3, 13]: decreased
- body temperature ([3]; subcutaneous, telemetry, acute IP, CBN 10, 30, 100 mg/kg, zolpidem 10 mg/kg, 11-OH-CBN 1, 3, 10 mg/kg): did not robustly effect
- locomotor activity counts ([3]; telemetry, acute IP, CBN 10, 30, 100 mg/kg, zolpidem 10 mg/kg, 11-OH-CBN 1, 3, 10 mg/kg): decreased
- pentobarbital-induced sleep time [4]: prolonged
- body temperature or locomotor activity ([5]; CBN up to 80 mg/kg IP, ref Fernandes et al (1974)): did not influence
- body temperature [5, 14]: reduced
- locomotor activity [5, 14]: suppressed
- highest plasma CBN concentration (Cmax) following cannabis smoking [6]: 11.6 ng/mL
- number of awakenings and overall sleep disturbance [7]: significantly reduced
- sleep onset latency [7]: did not influence
- Tmax ([8]; ip, rat brain after CBN 10 mg/kg, read-out: brain Tmax): 2 h
- Tmax ([8]; ip, rat plasma after CBN 10 mg/kg, read-out: plasma Tmax (converted)): 0.5 h
- half-life ([8]; ip, rat, after CBN 10 mg/kg, similar in plasma and brain, read-out: half-life in plasma and brain (converted)): ~120 min
- Brain AUC∞ ([8]; rat brain after CBN 10 mg/kg IP, analyte as labelled): 1623 pg hour/mg brain
- Brain Cmax ([8]; rat brain after CBN 10 mg/kg IP, analyte as labelled, n = 4): 373 ± 26 pg/mg brain
- half-life ([8]; rat brain after CBN 10 mg/kg IP, analyte as labelled, read-out: Brain t½ (converted)): 132 min
- Brain Cmax ([8]; rat brain following systemic administration of CBN): 1.2 µM
- Plasma AUC∞ ([8]; rat plasma after CBN 10 mg/kg IP, analyte as labelled): 775 ng·h/mL
- Cmax ([8]; rat plasma after CBN 10 mg/kg IP, analyte as labelled, n = 4): 374 ± 34 ng/mL
- half-life ([8]; rat plasma after CBN 10 mg/kg IP, analyte as labelled, read-out: Plasma t½ (converted)): 116 min
- Brain/plasma ratio ([8]; rat, after CBN 10 mg/kg IP, analyte as labelled): ~2
- Kp ([8]; rat, brain and plasma, ip, 10 mg/kg, rat, after CBN 10 mg/kg IP, analyte as labelled, read-out: Brain/plasma ratio): 2.09
- Cmax ([8]; rat, plasma, intraperitoneal, rats, 10 mg/kg CBN dose): 374 ng/mL
- % NREM ([9]; days 1, 8, 15): increased % NREM initially on days 1 and 8, however this effect was diminished by day 15
- % REM ([9]; days 1, 8, 15): affected
- % quiet wake ([9]; days 1, 8, 15): affected
- REM bout duration ([9]; days 1, 8, 15): affected
- REM bout number ([9]; days 1, 8, 15): affected
- total wake time ([9]; days 1, 8, 15): decreased
- NREM sleep onset latency ([9]; days 1, 8, 15, main effect): increased
- REM sleep onset latency ([9]; days 1, 8, 15, main effect): increased
- NREM bout duration [9, 15]: increased
- NREM bout number [9, 15]: decreased
- % active wake ([9]; days 1, 8, 15, subject to tolerance): decreased
- total sleep time over days ([9]; recordings days 1, 8, 15, between-subjects vs vehicle, n = 8): increased
- activity at CB2 [10]: < 20%
- EC50 [11]: 3.98 µM
- activity at CB1 receptors (in words) [11]: low activity
- Emax ([11]; AtT20, read-out: maximal response (Emax)): 29 ± 3%
